US20250381110A1, “SKIN CARE COMPOSITION AND METHOD OF USING THE SAME” (THE PROCTER & GAMBLE COMPANY, priority 2024, published 2025)
Counter-ions that a name gives are not always drawn.

Test system: p62-dependent mitophagy
Test: Luciferase-p62 assay (Fluc-p62 clearance) in mouse embryonic fibroblasts
Type: cell-based
Conditions: for Mean Luminescence: Luciferase-p62 assay, mouse embryonic fibroblasts (MEFs), compounds at 10 μM; for % Activity over baseline: percentage of Luciferase-p62 clearance relative to baseline (mean luminescence in the absence of doxycycline induction); for % Activity over baseline / % Activity relative to Rapamycin: MEFs, 10 μM; for % Activity relative to Rapamycin: percentage of activity relative to rapamycin tested in the same experiment at the same concentration
Method: To identify p62-dependent materials which increase mitophagy, a Luciferase-p62 Assay was established. This method provides an approach to measure the ability of a material to modulate p62-dependent mitophagy by using an inducible firefly luciferase-p62 (Fluc-p62) reporter cell system. In this assay, p62 levels are driven by doxycycline treatment. After levels increased, expression of Fluc-p62 is turned off by removal of doxycycline, materials are then added and assessed for how they affect clearance of Fluc-p62 protein, which is proportionate to cellular mitophagy rates (Kelly et al.). The negative control is doxycycline induced Luc-p62 in the absence of compound or bioactive material treatment and in the presence of vehicle (DMSO).
Test materials including bioactive materials were screened in mouse embryonic fibroblasts (MEFs, Harada et al.) expressing the TET-inducible p62-fluc construct as previously described (Brown et al.). […] Gibson assembly was used to insert firefly luciferase (Fluc) and p62 into the pCW57.1 backbone. Fluc, p62, and pCW57.1 were polymerase chain reaction (PCR) amplified using pfu polymerase (Life technologies) and Gibson assembly primers with 20 base pair (bp) overhangs. PCR products were separated by agarose gel electrophoreses, and fragments excised and purified before use in DNA assembly reaction with NEBuilder HiFi DNA Assembly kit (New England Biolabs). After the assembly, the reaction mix was transformed into NEB3040 Stable Competent Escherichia coli (New England Biolabs). After 24 hours growth at 31 degrees Celsius the plasmid was extracted using QIAprep Spin Miniprep kit (Qiagen). The plasmid was sequenced to confirm correct insertion of Fluc-p62. To generate MEFs stably expressing doxycycline inducible Fluc-p62, HEK293FT cells were transfected with Fluc-p62-pCW57.1 and the ViraPower Packaging Mix (Invitrogen) to produce lentivirus. MEFs were transduced with the obtained lentiviral stock following followed by selection with 1 microgram per milliliter puromycin.Fluc-p62expressing MEFs were maintained in DMEM supplemented with 10 percent fetal bovine serum (FBS), 100 units per milliliter penicillin/streptomycin, and 2 millimolar L-glutamine in a humidified atmosphere containing 5 percent carbon dioxide at 37 degrees Celsius. Cells were plated into white 96 well plates (2,000 cells per well with 100 microliters media) and allowed to settle for 24 hours. […] Subsequently, cells were treated with test materials for 48 hours in normal growth medium and analysed using ONE-Glo™+Tox Luciferase Reporter and Cell Viability Assay (Promega) by following the manufacturer's protocol.
Test compositions and control compositions were prepared as described above in the Luciferase-p62 assay (Method 3) and tested accordingly. The compounds used in this example, as examples of bioactive materials, were from the APExBIO DiscoveryProbe™ Natural Product Library Plus (Houston, TX) and evaluated at equivalent concentrations (10 μM).
Data are additionally calculated as percentage of activity relative to rapamycin, a benchmark control compound tested in the same experiment.

| SMILES | Mean Luminescence | % Activity over baseline [%] | % Activity relative to Rapamycin [%] |
| --- | --- | --- | --- |
| O=C1O[C@H]([C@@H](O)CO)C(O)=C1O [Vitamin C] | 962.07 | 40.54 | 73.05 |
| O=C(O)CCNC(=O)c1ccccc1 [Betamipron] | 923.38 |  |  |
| O=C(O[C@@H]1O[C@@H]2COC(=O)c3cc(O)c(O)c(O)c3-c3c(cc(O)c(O)c3O)C(=O)O[C@H]([C@H]1O)[C@@H]2O)c1cc(O)c(O)c(O)c1 [Corilagin] | 985.42 | 39.10 | 70.45 |
| O=C(O)CC(O)C(=O)O (centres unmarked) [Malic acid] | 962.28 | 40.53 | 73.03 |
| CCC[C@@H]1C[C@@H](C(=O)N[C@@H]([C@H]2O[C@H](SC)[C@H](OP(=O)(O)O)[C@@H](O)[C@H]2O)[C@H](C)Cl)N(C)C1 [Clindamycin Phosphate] | 526.49 | 67.46 | 121.55 |
| C[C@@H]1O[C@@H](O[C@H]2C[C@@H](O)[C@]3(CO)[C@H]4[C@H](O)C[C@]5(C)[C@@H](C6=CC(=O)OC6)CC[C@]5(O)[C@@H]4CC[C@]3(O)C2)[C@H](O)[C@H](O)[C@H]1O [Ouabain] | 788.34 | 51.28 | 92.39 |
| CO[C@H]1C(=O)[C@]2(C)[C@@H](OC)C[C@H]3OC[C@@]3(OC(C)=O)[C@H]2[C@H](OC(=O)c2ccccc2)[C@]2(O)C[C@H](OC(=O)[C@H](O)[C@@H](NC(=O)OC(C)(C)C)c3ccccc3)C(C)=C1C2(C)C [Cabazitaxel] | 929.36 | 42.56 | 76.69 |
| CC(=O)O[C@]1(C(C)=O)CC[C@H]2[C@@H]3C[C@H](C)C4=CC(=O)CC[C@]4(C)[C@H]3CC[C@@]21C [Medroxyprogesterone acetate] | 800.04 | 50.56 | 91.09 |
| Oc1cccc(O)c1O [Pyrogallol] | 936.38 | 42.13 | 75.91 |
| CCN(CC)CC#CCOC(=O)C(O)(c1ccccc1)C1CCCCC1 (centres unmarked) [Oxybutynin chloride] | 882.87 | 45.44 | 81.87 |
| N=c1ccn2c(n1)O[C@H]1[C@H](O)[C@@H](CO)O[C@H]12 [Cyclocytidine HCl] | 914.30 | 43.50 | 78.37 |
| Cc1cnc(C)cn1 [2,5-Dimethyl pyrazine] | 842.32 | 47.94 | 86.38 |
| Oc1ccc(OC2CCCCO2)cc1 (centres unmarked) [Deoxyarbutin] | 653.14 | 59.64 | 107.45 |
| C=C(CC(=O)O)C(=O)O [Itaconic acid] | 640.97 | 60.39 | 108.80 |
| CCC(C)n1ncn(-c2ccc(N3CCN(c4ccc(OCC5COC(Cn6cncn6)(c6ccc(Cl)cc6Cl)O5)cc4)CC3)cc2)c1=O (centres unmarked) [Itraconazole] | 450.47 | 72.16 | 130.02 |
| C[N+](C)(C)CC(O)CC(=O)O.[Cl-] (racemic) [DL-Carnitine HCl] | 902.01 | 44.26 | 79.74 |

| SMILES | Mean Luminescence | % Activity over baseline [%] | % Activity relative to Rapamycin [%] |
| --- | --- | --- | --- |
| C[C@@H]1C(=O)O[C@H]2C[C@@]34[C@H]5C[C@@H](C(C)(C)C)[C@]36[C@@H](OC(=O)[C@@H]6O)O[C@@]4(C(=O)O5)[C@]21O [Ginkgolide A] | 977.84 | 39.57 | 71.29 |
| CC1(C)C2CCC1(C)C(O)C2 (centres unmarked) [(—)-Borneol] | 967.20 | 40.23 | 72.48 |
| C[C@H](CCC(=O)O)[C@H]1CC[C@H]2[C@@H]3[C@H](O)C[C@@H]4C[C@H](O)CC[C@]4(C)[C@H]3CC[C@]12C [Chenodeoxycholic Acid] | 999.71 | 38.22 | 68.86 |
| O=c1ccc2ccc3occc3c2o1 [Angelicin] | 910.28 | 43.74 | 78.82 |
| CCOC(=O)NCCCC(=O)NCCc1ccccc1 [Santacruzamate A (CAY10683)] | 972.04 | 39.93 | 71.94 |
| N[C@H](Cc1ccccc1)C(=O)O [D-Phenylalanine] | 763.78 | 52.80 | 95.13 |
| O=c1cc[nH]c(=O)[nH]1 [Uracil] | 927.30 | 42.69 | 76.92 |
| O[C@H]1[C@H](O)[C@@H](O)[C@H](O)[C@@H](O)[C@H]1O [myo-Inositol] | 670.16 | 58.58 | 105.55 |
| C=CCNC1=C2C[C@@H](C)C[C@H](OC)[C@H](O)[C@@H](C)/C=C(\C)[C@H](OC(N)=O)[C@@H](OC)/C=C\C=C(/C)C(=O)NC(=CC1=O)C2=O [17-AAG (KOS953)] | 299.07 | 81.52 | 146.87 |
| COc1cc2ncnc(Nc3ccc(F)c(Cl)c3)c2cc1OCCCN1CCOCC1 [Gefitinib (ZD1839)] | 960.31 | 40.65 | 73.25 |
| O=C1C=CC(=O)c2c(O)cccc21 [Juglone] | 894.51 | 44.72 | 80.57 |
| C[C@H](CC[C@@]1(O)O[C@H]2C[C@H]3[C@@H]4CC=C5C[C@@H](O[C@@H]6O[C@H](CO)[C@@H](O[C@@H]7O[C@@H](C)[C@H](O)[C@@H](O)[C@H]7O)[C@H](O)[C@H]6O[C@@H]6O[C@@H](C)[C@H](O)[C@@H](O)[C@H]6O)CC[C@]5(C)[C@H]4CC[C@]3(C)[C@H]2[C@@H]1C)CO[C@@H]1O[C@H](CO)[C@@H](O)[C@H](O)[C@H]1O [Protodioscin] | 713.58 | 55.90 | 100.72 |
| CCOC(=O)O[C@]1(C(=O)OCCl)CC[C@H]2[C@@H]3CCC4=CC(=O)C=C[C@]4(C)[C@H]3[C@@H](O)C[C@@]21C [Loteprednol etabonate] | 214.82 | 86.72 | 156.26 |
| COc1nc2ccc(Br)cc2cc1[C@@H](c1ccccc1)[C@@](O)(CCN(C)C)c1cccc2ccccc12 [Bedaquiline] | 802.99 |  |  |
| COc1ccc(CC(=O)O)cc1 [4-Methoxyphenylacetic acid] | 929.33 | 42.57 | 76.69 |
